Measurements taken from US11980188B2, “Spiro cyclohexanedione derivates as herbicides” (SYNGENTA PARTICIPATIONS AG, priority 2018, dated 2024).

Assays:
Assay in all cases: Glasshouse herbicide test, pre- and post-emergence, percentage damage
Type in all cases: in vivo
Setaria faberi (SETFA) = conditions: 250 g/h, evaluated after 13 days, percentage damage on five point scale; for SETFA POST: post-emergence; for SETFA PRE: pre-emergence
Protocol: (§1) Seeds of a variety of test species are sown in standard soil in pots (Lolium perenne (LOLPE), Setaria faberi (SETFA), Alopecurus myosuroides (ALOMY), Echinochloa crus-galli (ECHCG), Avena fatua (AVEFA)). After cultivation for one day (pre-emergence) or after 8 days cultivation (post-emergence) under controlled conditions in a glasshouse (at 24/16° C., day/night; 14 hours light; 65% humidity), the plants are sprayed with an aqueous spray solution derived from the formulation of the technical active ingredient in acetone/water (50:50) solution containing 0.5% Tween 20 (polyoxyethelyene sorbitan monolaurate, CAS RN 9005-64-5). Compounds are applied at […]. The test plants are then grown in a glasshouse under controlled conditions in a glasshouse (at 24/16° C., day/night; 14 hours light; 65% humidity) and watered twice daily. After 13 days for pre and post-emergence, the test is evaluated for the percentage damage caused to the plant. The biological activities are shown in the following table on a five point scale (5=80-100%; 4=60-79%; 3=40-59%; 2=20-39%; 1=0-19%).

[1] = tested on: Alopecurus myosuroides (ALOMY); conditions: 250 g/h, evaluated after 13 days, percentage damage on five point scale; for ALOMY POST: post-emergence; for ALOMY PRE: pre-emergence
Protocol: as §1

Lolium perenne (LOLPE) = conditions: 250 g/h, evaluated after 13 days, percentage damage on five point scale; for LOLPE POST: post-emergence; for LOLPE PRE: pre-emergence
Protocol: as §1

[2] = tested on: Echinochloa crus-galli (ECHCG); conditions: 250 g/h, evaluated after 13 days, percentage damage on five point scale; for ECHCG POST: post-emergence; for ECHCG PRE: pre-emergence
Protocol: as §1

Avena fatua (AVEFA) = conditions: 250 g/h, evaluated after 13 days, percentage damage on five point scale; for AVEFA POST: post-emergence; for AVEFA PRE: pre-emergence
Protocol: as §1

CON1CCC2(CC1)CC(=O)C(c1c(C)cc(-c3ncc(Cl)cn3)cc1C)C(=O)C2 [Compound A1]
5 (5=80-100%): SETFA POST (Setaria faberi (SETFA)) | SETFA PRE (Setaria faberi (SETFA)) | ALOMY POST [1] | ALOMY PRE [1] | LOLPE POST (Lolium perenne (LOLPE)) | LOLPE PRE (Lolium perenne (LOLPE)) | ECHCG POST [2] | ECHCG PRE [2] | AVEFA POST (Avena fatua (AVEFA)) | AVEFA PRE (Avena fatua (AVEFA))

CON1CCC2(CC1)CC(=O)C(c1c(C)cc(-c3ncc(F)cn3)cc1C)C(=O)C2 [Compound A2, 9-[4-(5-fluoropyrimidin-2-yl)-2,6-dimethyl-phenyl]-3-methoxy-3-azaspiro[5.5]undecane-8,10-dione]
5 (5=80-100%): SETFA POST (Setaria faberi (SETFA)) | SETFA PRE (Setaria faberi (SETFA)) | ALOMY POST [1] | ALOMY PRE [1] | LOLPE POST (Lolium perenne (LOLPE)) | LOLPE PRE (Lolium perenne (LOLPE)) | ECHCG POST [2] | ECHCG PRE [2] | AVEFA POST (Avena fatua (AVEFA)) | AVEFA PRE (Avena fatua (AVEFA))

CON1CCC2(CC1)CC(=O)C(c1c(C)cc(-c3ccc(C#N)cn3)cc1C)C(=O)C2 [Compound A3]
5 (5=80-100%): SETFA POST (Setaria faberi (SETFA)) | SETFA PRE (Setaria faberi (SETFA)) | ALOMY POST [1] | ALOMY PRE [1] | LOLPE POST (Lolium perenne (LOLPE)) | LOLPE PRE (Lolium perenne (LOLPE)) | ECHCG POST [2] | ECHCG PRE [2] | AVEFA POST (Avena fatua (AVEFA)) | AVEFA PRE (Avena fatua (AVEFA))

CON1CCC2(CC1)CC(=O)C(c1c(C)cc(-n3cc(Cl)cn3)cc1C)C(=O)C2 [Compound A5]
5 (5=80-100%): SETFA POST (Setaria faberi (SETFA)) | SETFA PRE (Setaria faberi (SETFA)) | ALOMY POST [1] | ALOMY PRE [1] | LOLPE POST (Lolium perenne (LOLPE)) | LOLPE PRE (Lolium perenne (LOLPE)) | ECHCG POST [2] | ECHCG PRE [2] | AVEFA POST (Avena fatua (AVEFA)) | AVEFA PRE (Avena fatua (AVEFA))

CON1CCC2(CC1)CC(=O)C(c1c(C)cc(-c3ccc(F)cc3)cc1C)C(=O)C2 [Compound A6]
5 (5=80-100%): SETFA POST (Setaria faberi (SETFA)) | SETFA PRE (Setaria faberi (SETFA)) | ALOMY POST [1] | ALOMY PRE [1] | LOLPE POST (Lolium perenne (LOLPE)) | LOLPE PRE (Lolium perenne (LOLPE)) | ECHCG POST [2] | ECHCG PRE [2] | AVEFA POST (Avena fatua (AVEFA)) | AVEFA PRE (Avena fatua (AVEFA))

COc1cc(-c2ncc(F)cn2)cc(OC)c1C1C(=O)CC2(CCN(OC)CC2)CC1=O [Compound A8]
5 (5=80-100%): SETFA POST (Setaria faberi (SETFA)) | SETFA PRE (Setaria faberi (SETFA)) | ALOMY POST [1] | ALOMY PRE [1] | LOLPE POST (Lolium perenne (LOLPE)) | LOLPE PRE (Lolium perenne (LOLPE)) | ECHCG POST [2] | ECHCG PRE [2] | AVEFA POST (Avena fatua (AVEFA)) | AVEFA PRE (Avena fatua (AVEFA))

COc1cc(-c2ccc(F)cc2)cc(C)c1C1C(=O)CC2(CCN(OC)CC2)CC1=O [Compound A9]
5 (5=80-100%): SETFA POST (Setaria faberi (SETFA)) | SETFA PRE (Setaria faberi (SETFA)) | ALOMY POST [1] | ALOMY PRE [1] | LOLPE POST (Lolium perenne (LOLPE)) | LOLPE PRE (Lolium perenne (LOLPE)) | ECHCG POST [2] | ECHCG PRE [2] | AVEFA POST (Avena fatua (AVEFA)) | AVEFA PRE (Avena fatua (AVEFA))

COc1cc(-c2ncc(F)cn2)cc(C)c1C1C(=O)CC2(CCN(OC)CC2)CC1=O [Compound A10]
5 (5=80-100%): SETFA POST (Setaria faberi (SETFA)) | SETFA PRE (Setaria faberi (SETFA)) | ALOMY POST [1] | ALOMY PRE [1] | LOLPE POST (Lolium perenne (LOLPE)) | LOLPE PRE (Lolium perenne (LOLPE)) | ECHCG POST [2] | ECHCG PRE [2] | AVEFA POST (Avena fatua (AVEFA)) | AVEFA PRE (Avena fatua (AVEFA))

Cc1cc(-c2ccc(F)cc2)cc(C)c1C1C(=O)CC2(CCN(C(=O)OC(C)(C)C)CC2)CC1=O [Compound A11]
4 (4=60-79%): AVEFA POST (Avena fatua (AVEFA)) | AVEFA PRE (Avena fatua (AVEFA))
5 (5=80-100%): SETFA POST (Setaria faberi (SETFA)) | SETFA PRE (Setaria faberi (SETFA)) | ALOMY POST [1] | ALOMY PRE [1] | LOLPE POST (Lolium perenne (LOLPE)) | LOLPE PRE (Lolium perenne (LOLPE)) | ECHCG POST [2] | ECHCG PRE [2]

Cc1cc(-c2ccc(F)cc2)cc(C)c1C1C(=O)CC2(CCN(C(=O)NC(C)(C)C)CC2)CC1=O [Compound A57]
5 (5=80-100%): SETFA POST (Setaria faberi (SETFA)) | SETFA PRE (Setaria faberi (SETFA)) | LOLPE POST (Lolium perenne (LOLPE)) | LOLPE PRE (Lolium perenne (LOLPE)) | ECHCG POST [2] | ECHCG PRE [2]
1 (1=0-19%): AVEFA PRE (Avena fatua (AVEFA))
4 (4=60-79%): AVEFA POST (Avena fatua (AVEFA))
